Series [1] relates to HIV-1 positive sera. To be noted: cited from earlier work; for HIV-1 positive sera reacting of sera tested: J. Virol. 61, 2639-2641, 1987.
The subject of series [2] is HIV-1 positive sera. As to the kind of experiment: ELISA, single peptides identifying HIV-1 positive sera. In kind it is binding, human. As to conditions: single gp41 or gp120 peptide. As to the method:
According to this test a peptide or a peptide mixture of the present invention is adsorbed onto the wells of a microtiter plate. The wells are then treated with sera to be tested. After washing, anti-human IgG labeled with peroxidase is added to the wells. The determination of the peroxidase is performed with a corresponding substrate, e.g. with o-phenylene diamine. Also in this procedure the peroxidase can be exchanged by another label, e.g. by a radioactive or fluorescence label.
Each well of the microtiter plate is saturated with 100 µl of a solution containing a peptide or mixture of peptides (5 µg/ml) and left overnight. The wells are emptied and washed twice with a washing buffer (Tris, 0.043M; NaCl, 0.5M;thimerosal, 0.01% w/v; Tween 20, 0.05% v/v; pH 7.4). The wells are then saturated with […] of washing buffer for 1 hr. at 37°C and washed once with the same buffer. Serum samples to be analyzed are diluted with specimen buffer (washing buffer plus casein, 0.05% w/v). The bells are rinsed with washing buffer prior to the addition of the diluted serum sample (0.1 ml). These are left to incubate for 1 hr. at room temperature. The wells are then emptied, washed twice rapidly and then once for two minutes with washing buffer. […] The wells are then emptied and washed twice rapidly with washing buffer and then five times in which the buffer was in contact with the well 2 minutes per washing. The substrate solution (3,3', 5,5'-tetramethylbenzidine, 8 mg per ml of DMSO) is diluted with 100 volumes 0.1 M citrate-acetate buffer, pH 5.6 containing 0.1% v/v of 30% H2O2 and added to each well (0.1 ml per well). After 10 minutes the contents of each well is treated with 0.1 ml 2N H2SO4 and the optical density read at 450 nm. All determinations are done in duplicate.

A short description of series [3]: Stability of linear and cyclic peptide in coating buffers (HPLC, Ellman's test). Type of series: physicochemical. An excerpt: Even though results presented in TABLE 5 clearly show the superiority of cyclic peptides over their linear counterpart in detecting HIV-1-antibodies, that increased sensitivity could have been underestimated because of probable cyclization and polymerization of the linear peptide after solubilization in a carbonate buffer (pH 9.6). That experiment was repeated with the linear 87 and cyclic 87c peptides dissolved in a carbonate buffer (pH 9.6) as before and also in 10% acetic acid (pH 2.7). […] It is believed that cyclization and polymerization also occured in the wells of the microtiter plates although the exact proportion of cyclic peptide bound to the plates versus linear has not been as yet determined.
For orientation: In Ellman's method for cholinesterases, released thiocholine reacts with DTNB.

Positions of bridges follow the written chain, without caps; N, C: chain ends. Residues, ends and D or L forms follow the SMILES beside them. No end group written: not given here.

Regarding “12-amino acid sequence (600-611): 12-amino acid sequence (600-611) from gp41-(HIV-1), Gnann et al. (GKLICTTAVPWN; Transmembrane protein gp41; UniProt P04578 600-611, looked up, fragment)”, in the series with HIV-1 positive sera [1] (Gnann et al., J. Infect. Dis. 156, 261-267, 1987, patients from the United States), the “HIV-1 infected patients reactive of patients tested” value was 131 out of 132. The “HIV-1 positive sera reacting of sera tested” value with HIV-1 positive sera [1] (Gnann et al.) is 22 out of 22. Further, in the series on HIV-1 positive sera [1] (tests at the Centers for Disease Control, Atlanta), the “positive sera detected of sera tested” value is 78 out of 79.

Turning to “88: cyclic peptide, amino acid positions 590-620 of gp41-HIV-1 (QQLLGIWGCSGKLICTTAVPWNASWSNKSLE; disulfide 9-15 (inferred); UniProt P04578 590-620, looked up, fragment) [Peptide 88]”, the “% Positive Sera correctly Idenfitied” value in the series with HIV-1 positive sera [2] turned out to be 100%.

Regarding “96: cyclic peptide, amino acid positions 604-629 of gp41-HIV-1 (CTTAVPWNASWSNKSLEQIWNHTTWM; also: cyclic peptide, ring not given here; UniProt P04578 604-629, looked up, fragment) [Peptide 96]”, in the series with HIV-1 positive sera [2], the “% Positive Sera correctly Idenfitied” value is 100%.

For `CC[C@H](C)[C@H](NC(=O)CNC(=O)[C@H](CC(C)C)NC(=O)[C@H](CC(C)C)NC(=O)[C@H](CCC(N)=O)NC(=O)[C@H](CCC(N)=O)NC(=O)[C@H](CC(=O)O)NC(=O)[C@H](CCCCN)NC(=O)[C@H](CC(C)C)NC(=O)[C@H](Cc1ccc(O)cc1)NC(=O)[C@H](CCCNC(=N)N)NC(=O)[C@H](CCC(=O)O)NC(=O)[C@@H](NC(=O)[C@H](C)NC(=O)[C@H](CC(C)C)NC(=O)[C@@H](NC(=O)[C@@H](N)CCCNC(=N)N)[C@@H](C)CC)C(C)C)C(=O)N[C@@H](Cc1c[nH]c2ccccc12)C(=O)NCC(=O)N[C@@H](CS)C(=O)N[C@@H](CO)C(=O)NCC(=O)N[C@@H](CCCCN)C(=O)N[C@@H](CC(C)C)C(=O)N[C@H](C(=O)N[C@@H](CS)C(=O)N[C@H](C(=O)N[C@H](C(=O)N[C@@H](C)C(=O)N[C@H](C(=O)N1CCC[C@H]1C(=O)N[C@@H](Cc1c[nH]c2ccccc12)C(=O)N[C@@H](CC(N)=O)C(=O)N[C@@H](C)C(=O)N[C@@H](CO)C(=O)O)C(C)C)[C@@H](C)O)[C@@H](C)O)[C@@H](C)CC` [Peptide 87] (H-RILAVERYLKDQQLLGIWGCSGKLICTTAVPWNAS-OH), the “stability in solution (HPLC, Ellman's test)” value in series [3] (10% acetic acid (pH 2.7)) is recorded as “remained linear”. Also, the “stability in solution (HPLC analysis)” value in series [3] (carbonate buffer (pH 9.6), room temperature) is “underwent cyclization and polymerization”.

With “H-CGKIEPLGVAPTKAKRRVVQREKR-OH [Peptide 71]”, in the series on HIV-1 positive sera [2], the “% Positive Sera correctly Idenfitied” value is reported as 83%.

Turning to SGKLIC, the “HIV-1 positive sera reacting of sera tested” value with HIV-1 positive sera [1] (Gnann et al.) is given as “not immunoreactive with any of the 22 HIV-1 positive sera tested”.

On to “SGKLICTTAVPWNAS [short synthetic peptide covering residues 606 to 620 of gp41 (HIV-1)]”, for which the “specificity (samples correctly identified of samples tested)” value with HIV-1 positive sera [1] (US Patent Appl. No. 120,027) is 63/63. In the series with HIV-1 positive sera [1] (prior-art reports, HIV-1 seropositive samples), the sensitivity is 89%.

Source of the values: EP0326490B2, “Synthetic peptides and mixtures thereof for detecting HIV antibodies” (ADALTIS INC., priority 1988, dated 2004).
